This is an account of results in ChEMBL document CHEMBL4118067, “Isosteroidal alkaloids as potent dual-binding site inhibitors of both acetylcholinesterase and butyrylcholinesterase from the bulbs of Fritillaria walujewii” (Eur J Med Chem, 2017).

One assay concerns the target Cholinesterase (Equus caballus, UniProt P81908). As to the kind of experiment: Inhibition of equine serum BChE using butyrylthiocholine iodide as substrate preincubated for 15 mins followed by substrate addition measured for 30 mins by Ellman's method. (In Ellman's method for cholinesterases, released thiocholine reacts with DTNB.)
The nature of assay [1]: Selectivity index, ratio of IC50 for equine serum BChE to IC50 for electric eel AChE.
In a further assay the target is Acetylcholinesterase (Electrophorus electricus, UniProt O42275). As to the kind of experiment: Inhibition of electric eel AChE using acetylthiocholine iodide as substrate preincubated for 15 mins followed by substrate addition measured for 30 mins by Ellman's method.
Chain of Acetylcholinesterase (O42275 whole entry): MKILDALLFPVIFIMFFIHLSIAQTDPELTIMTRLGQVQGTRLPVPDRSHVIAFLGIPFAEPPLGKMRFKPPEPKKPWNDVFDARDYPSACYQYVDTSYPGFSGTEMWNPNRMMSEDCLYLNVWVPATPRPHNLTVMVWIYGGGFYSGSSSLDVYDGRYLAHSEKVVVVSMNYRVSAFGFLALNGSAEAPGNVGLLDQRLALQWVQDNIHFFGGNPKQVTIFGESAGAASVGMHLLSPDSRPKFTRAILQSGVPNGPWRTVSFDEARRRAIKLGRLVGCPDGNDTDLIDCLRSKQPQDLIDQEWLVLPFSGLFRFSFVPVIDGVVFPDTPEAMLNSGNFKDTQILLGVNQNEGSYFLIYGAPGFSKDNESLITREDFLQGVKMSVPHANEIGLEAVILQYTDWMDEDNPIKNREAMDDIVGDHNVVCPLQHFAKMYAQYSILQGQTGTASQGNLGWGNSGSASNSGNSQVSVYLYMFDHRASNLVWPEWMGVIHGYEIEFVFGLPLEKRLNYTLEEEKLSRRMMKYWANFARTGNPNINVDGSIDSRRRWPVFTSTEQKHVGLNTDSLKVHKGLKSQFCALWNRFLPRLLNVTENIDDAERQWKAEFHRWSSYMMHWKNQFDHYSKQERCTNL
Assay [2] deals with Acetylcholinesterase (Electrophorus electricus) (UniProt O42275). As to the kind of experiment: Reversible inhibition of electric eel AChE at 2 to 10 uM using acetylthiocholine iodide as substrate preincubated for 15 mins followed by substrate addition measured for 30 mins by Ellman's method.
Chain of Acetylcholinesterase (Electrophorus electricus) (O42275 24-633 limits assumed): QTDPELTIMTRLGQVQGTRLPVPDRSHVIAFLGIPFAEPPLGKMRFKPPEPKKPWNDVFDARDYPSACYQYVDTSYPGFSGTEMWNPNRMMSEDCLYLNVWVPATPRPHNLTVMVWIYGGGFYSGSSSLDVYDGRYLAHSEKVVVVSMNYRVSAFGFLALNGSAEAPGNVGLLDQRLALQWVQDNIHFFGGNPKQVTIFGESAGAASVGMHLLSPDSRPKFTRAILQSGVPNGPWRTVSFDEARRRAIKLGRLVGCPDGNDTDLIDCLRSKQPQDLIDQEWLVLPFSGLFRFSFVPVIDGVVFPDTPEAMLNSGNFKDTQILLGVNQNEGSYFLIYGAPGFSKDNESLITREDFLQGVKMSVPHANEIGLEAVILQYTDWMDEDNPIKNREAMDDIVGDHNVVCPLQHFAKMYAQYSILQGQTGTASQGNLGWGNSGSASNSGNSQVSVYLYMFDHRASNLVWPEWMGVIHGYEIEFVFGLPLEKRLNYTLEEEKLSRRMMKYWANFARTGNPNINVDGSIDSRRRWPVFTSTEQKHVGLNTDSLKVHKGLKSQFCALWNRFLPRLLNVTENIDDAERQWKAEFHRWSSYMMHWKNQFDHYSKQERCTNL
Assay [3] shares this target. Kind of assay: Mixed-type inhibition of electric eel AChE at 8 to 32 uM using acetylthiocholine iodide as substrate preincubated for 15 mins followed by substrate addition measured for 30 mins by Lineweaver-Burk plot method.
Assay [4] shares this target. As to the kind of experiment: Mixed-type inhibition of electric eel AChE at 7 to 28 uM using acetylthiocholine iodide as substrate preincubated for 15 mins followed by substrate addition measured for 30 mins by Lineweaver-Burk plot method.
The target is the same in assay [5]. As to the kind of experiment: Reversible inhibition of electric eel AChE at 6 to 16 uM using acetylthiocholine iodide as substrate preincubated for 15 mins followed by substrate addition measured for 30 mins by Ellman's method.
Assay [6] has the same target. As to the kind of experiment: Mixed-type inhibition of electric eel AChE at 2 to 10 uM using acetylthiocholine iodide as substrate preincubated for 15 mins followed by substrate addition measured for 30 mins by Lineweaver-Burk plot method.
The target is the same in assay [7]. As to the kind of experiment: Mixed-type inhibition of electric eel AChE at 6 to 24 uM using acetylthiocholine iodide as substrate preincubated for 15 mins followed by substrate addition measured for 30 mins by Lineweaver-Burk plot method.
For assay [8] the target is unchanged. As to the kind of experiment: Reversible inhibition of electric eel AChE at 4 to 12 uM using acetylthiocholine iodide as substrate preincubated for 15 mins followed by substrate addition measured for 30 mins by Ellman's method.
For assay [9] the target is unchanged. Kind of assay: Mixed-type inhibition of electric eel AChE at 4 to 20 uM using acetylthiocholine iodide as substrate preincubated for 15 mins followed by substrate addition measured for 30 mins by Lineweaver-Burk plot method.
Assay [10] shares this target. As to the kind of experiment: Mixed-type inhibition of electric eel AChE at 4 to 16 uM using acetylthiocholine iodide as substrate preincubated for 15 mins followed by substrate addition measured for 30 mins by Lineweaver-Burk plot method.

Activity calls are given as the source filed them. No cut-off for these calls is given here.

Chain of Cholinesterase (P81908 whole entry): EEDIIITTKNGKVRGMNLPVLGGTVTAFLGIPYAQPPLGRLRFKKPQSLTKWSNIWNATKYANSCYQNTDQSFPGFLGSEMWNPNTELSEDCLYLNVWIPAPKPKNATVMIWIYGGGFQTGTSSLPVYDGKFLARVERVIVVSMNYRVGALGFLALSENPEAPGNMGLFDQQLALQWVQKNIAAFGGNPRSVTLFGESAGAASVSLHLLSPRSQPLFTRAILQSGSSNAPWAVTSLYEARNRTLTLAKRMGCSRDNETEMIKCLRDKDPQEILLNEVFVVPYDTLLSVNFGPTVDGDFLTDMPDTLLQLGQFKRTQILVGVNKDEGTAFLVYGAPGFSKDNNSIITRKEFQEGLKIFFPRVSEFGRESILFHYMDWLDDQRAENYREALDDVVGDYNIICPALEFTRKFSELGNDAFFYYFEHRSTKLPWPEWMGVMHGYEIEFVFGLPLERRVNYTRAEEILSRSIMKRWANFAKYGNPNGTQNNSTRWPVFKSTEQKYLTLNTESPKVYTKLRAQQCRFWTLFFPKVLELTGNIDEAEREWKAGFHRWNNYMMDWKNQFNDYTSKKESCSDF

By IC50 is commonly meant the concentration at which inhibition is half-maximal. A low value points to greater potency. `C=C1C2(CC[C@H]3[C@@H]4CC(=O)[C@H]5C[C@@H](O)CC[C@]5(C)[C@H]4C[C@@]13O)O[C@@H]1C[C@H](C)CN[C@H]1[C@H]2C` (stereo partly drawn): the IC50 at Cholinesterase turned out to be 958 µM; at Acetylcholinesterase, 7.6 µM. For the same molecule, the Ratio IC50 in assay [1] amounted to 126. Moreover, the inhibition entry in assay [2] and in assay [3] was “Active” each time.
As for `C[C@H]1CC[C@H]2[C@H](C)[C@@H]3CC[C@@H]4[C@@H](C[C@H]5[C@H]4CC(=O)[C@H]4C[C@@H](O[C@@H]6O[C@H](CO)[C@@H](O)[C@H](O)[C@H]6O)CC[C@@]45C)[C@@H]3CN2C1`, the inhibition result in assay [4] and in assay [5] was “Active” throughout. Further, the 50% inhibitory concentration (IC50) against Cholinesterase is 6.8 µM; against Acetylcholinesterase it was 11.5 µM. The Ratio IC50 in assay [1] came to 0.59.
For `C[C@H]1CC[C@H]2[C@H](C)[C@H]3CC[C@@H]4[C@@H](C[C@H]5[C@H]4C[C@@H](O)[C@H]4C[C@@H](O)CC[C@@]45C)[C@@H]3CN2C1`, the concentration for half-maximal inhibition (IC50) came out at 18.6 µM at Cholinesterase and 45.8 µM against Acetylcholinesterase. For the same molecule, the Ratio IC50 in [1] was 0.41.
As to `C[C@H]1CC[C@@H]2N(C1)C[C@H]1[C@@H]3C[C@H]4[C@@H](CC(=O)[C@H]5C[C@@H](O[C@@H]6O[C@H](CO)[C@@H](O)[C@H](O)[C@H]6O)CC[C@@]54C)[C@@H]3CC[C@H]1[C@]2(C)O`, the concentration for half-maximal inhibition (IC50) against Cholinesterase and against Acetylcholinesterase was greater than 100 µM each time.
Turning to `C[C@H]1CC[C@@H]2[C@@H](C)[C@@H]3CC[C@@H]4[C@@H](C[C@H]5[C@H]4C[C@@H](O)[C@H]4C[C@@H](O)CC[C@@]45C)[C@@H]3CN2C1`, the inhibition result in assay [6] and in assay [2] was “Active” in each case. Further, the 50% inhibitory concentration (IC50) against Cholinesterase came to 2.08 µM; on Acetylcholinesterase, 5.85 µM. For the same molecule, in assay [1], the Ratio IC50 is 0.36.
For `C[C@H]1CC[C@@H]2[C@@H](C)[C@@H]3CC[C@@H]4[C@@H](C[C@H]5[C@H]4C[C@@H](O)[C@H]4C[C@@H](O[C@@H]6O[C@H](CO)[C@@H](O)[C@H](O)[C@H]6O)CC[C@@]45C)[C@@H]3CN2C1`, the inhibition entry in [5] and in assay [7] was “Active” throughout. In addition, the results for the half-maximal inhibitory concentration (IC50) on Cholinesterase and on Acetylcholinesterase were 3.89 µM and 10.8 µM, respectively. Further, in [1], the Ratio IC50 came out at 0.36.
In the case of `CC1=C2C[C@H]3[C@@H](CC(=O)[C@H]4C[C@@H](O)CC[C@@]43C)[C@@H]2CCC12O[C@@H]1C[C@H](C)CN[C@H]1[C@H]2C` (stereo partly drawn), the values for the half-inhibitory concentration (IC50) against Cholinesterase and on Acetylcholinesterase were 153 µM and 94 µM, respectively. In assay [1], the Ratio IC50 turned out to be 1.63.
Take `C[C@H]1CC[C@H]2[C@H](C)[C@@H]3CC[C@@H]4[C@@H](C[C@H]5[C@H]4CC(=O)[C@H]4C[C@@H](O[C@@H]6O[C@H](CO)[C@@H](O[C@@H]7O[C@H](CO)[C@@H](O)[C@H](O)[C@H]7O)[C@H](O)[C@H]6O)CC[C@@]45C)[C@@H]3CN2C1`: the inhibition result in [5] and in [7] was “Active” throughout. The concentration for half-maximal inhibition (IC50) worked out at 5.71 µM against Cholinesterase and 9.88 µM against Acetylcholinesterase. For the same molecule, the Ratio IC50 in assay [1] was 0.58.
As to `C[C@H]1CC[C@@H]2N(C1)C[C@H]1[C@@H]3C[C@H]4[C@@H](CC(=O)[C@H]5C[C@@H](O)CC[C@@]54C)[C@@H]3CC[C@H]1[C@]2(C)O` [IMPERIALINE], the IC50 against Cholinesterase and at Acetylcholinesterase was greater than 100 µM each time.
Take `C[C@H]1CC[C@@H]2[C@@H](C)[C@@H]3CC[C@@H]4[C@@H](C[C@H]5[C@H]4C[C@H](O)[C@H]4C[C@@H](O[C@@H]6O[C@H](CO)[C@@H](O)[C@H](O)[C@H]6O)CC[C@@]45C)[C@@H]3CN2C1`: the results for the 50% inhibitory concentration (IC50) at Cholinesterase and against Acetylcholinesterase were 13.5 µM and 51.5 µM, respectively. The Ratio IC50 in assay [1] was 0.26.
Turning to `C[C@H]1CC[C@H]2[C@H](C)[C@@H]3CC[C@@H]4[C@@H](C[C@H]5[C@H]4CC(=O)[C@H]4C[C@@H](O)CC[C@@]45C)[C@@H]3CN2C1`, the inhibition entry in [8] and in assay [9] was “Active” throughout. For the same molecule, the half-maximal inhibitory concentration (IC50) against Cholinesterase is 3.05 µM; at Acetylcholinesterase it was 8.37 µM. In [1], the Ratio IC50 came out at 0.36.
With `C[C@H]1CC[C@@H]2[C@@H](C)[C@@H]3CC[C@@H]4[C@@H](C[C@H]5[C@H]4C[C@H](O)[C@H]4C[C@@H](O)CC[C@@]45C)[C@@H]3CN2C1`, the inhibition entry in assay [10] and in assay [2] was “Active” in each case. Further, the half-inhibitory concentration (IC50) turned out to be 2.58 µM at Cholinesterase and 7.19 µM against Acetylcholinesterase. The Ratio IC50 in assay [1] amounted to 0.36.
